Experimental data as given in patent US5250517A (Hoffmann-La Roche Inc., priority 1987, dated 1993).
pIC50: −log10 of the molar value. Where a SMILES comes first, the peptide text is derived from it. [ ]: non-standard residue; d: D form. The star is where a group is joined. X1 = C=C[C@@H](CC(O)[C@H](CC1CCCCC1)N*)C(C)C; Boc = CC(C)(C)OC(=O)*

Molecular target: T1, human renin (Homo sapiens, UniProt P00797)
T1 sequence (P00797 67-406): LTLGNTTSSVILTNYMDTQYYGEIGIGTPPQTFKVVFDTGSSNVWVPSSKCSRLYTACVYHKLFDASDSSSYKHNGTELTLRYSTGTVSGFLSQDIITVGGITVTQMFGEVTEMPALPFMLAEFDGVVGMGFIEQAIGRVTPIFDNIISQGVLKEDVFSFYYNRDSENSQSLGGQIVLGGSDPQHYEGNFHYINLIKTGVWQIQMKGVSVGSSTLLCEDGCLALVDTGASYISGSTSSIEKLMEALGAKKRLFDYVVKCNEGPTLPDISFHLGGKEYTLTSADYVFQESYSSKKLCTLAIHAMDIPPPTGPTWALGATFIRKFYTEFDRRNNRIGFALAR
Test: In Vitro Test With Pure Human Renin
Format: biochemical
Conditions: human tetradecapeptide renin substrate (hTD), pH 7.4, 3 hours at 37° C. vs 4° C., angiotensin I by RIA
Protocol: In Vitro Test With Pure Human Renin
The test is carried out in Eppendorf test tubes. The incubation mixture consists of (1) 100 μl of human renin in buffer A (0.1M sodium phosphate solution, pH 7.4, containing 0.1% bovine serum albumin, 0.1% sodium azide and 1 mM ethylenediaminetetraacetic acid), sufficient for a renin activity of 2-3 ng of angiotensin I/ml/hr.; (2) 145 μl of buffer A; (3) 30 μl of 10 μM human tetradecapeptide renin substrate (hTD) in 10 mM hydrochloric acid; (4) 15 μl of dimethyl sulfoxide with or without inhibitor and (5) 10 μl of a 0.03 molar solution of hydroxyquinoline sulfate in water.
The samples are incubated for 3 hours at 37° C. or 4° C. in triplicate. 2×100 μl samples per experimental test tube are used in order to measure the production of angiotensin I via RIA (standard radioimmunoassay; clinical assay solid phase kit). […] The production of angiotensin I in determined by the difference between the experiment at 37° C. and that at 4° C.
The following controls are carried out:
(a) Incubation of hTD samples without renin and without inhibitor at 37° C. and 4° C. The difference between these two values gives the base value of angiotensin I production.
(b) Incubation of hTD samples with renin, but without inhibitor at 37° C. and 4° C. The difference between these values gives the maximal value of angiotensin I production.
In each sample, the base value of the angiotensin I production is subtracted from the angiotensin I production which is determined. The difference between the maximal value and the base value gives the value of the maximal substrate hydrolysis (=100%) by renin.
The IC50 values are determined from a linear regression curve from a logit-log plot.

pIC50	Compound
7.34	C=C[C@@H](C[C@H](O)[C@H](CC1CCCCC1)NC(=O)[C@H](Cc1c[nH]cn1)NC(=O)C(CC(=O)C1CCCC1)Cc1ccccc1)C(C)C (mixture of isomers) [P, (S)-N-[(1S,2S,4S)-1-(cyclohexylmethyl)-2-hydroxy-4-isopropyl-5-hexenyl]-α-[(RS)-α-[(cyclopentyl-carbonyl)methyl]hydrocinnamamido]imidazole-4-propionamide]
7.34	C=C[C@@H](C[C@H](O)[C@H](CC1CCCCC1)NC(=O)[C@H](Cc1c[nH]cn1)NC(=O)C(CC(=O)NCCN(CC(=O)OC(C)(C)C)C(=O)OC(C)(C)C)Cc1ccccc1)C(C)C (mixture of isomers) [Compound I, t-butyloxycarbonyl [2-[(R and S)-3-[[(S)-1-[[(1S,2S,4S)-1-(cyclohexylmethyl)-2-hydroxy-4-isopropyl-5-hexenyl]carbamoyl]-2-imidazol-4-ylethyl]-carbamoyl]-4-phenylbutyramido]ethyl]glycine t-butyl ester]
8.46	CC[C@@H](C[C@H](O)[C@H](CC1CCCCC1)NC(=O)[C@H](Cc1c[nH]cn1)NC(=O)[C@H](Cc1ccccc1)NC(=O)[C@H]1CCCN1C(=O)OC(C)(C)C)C(C)C [A]
8.12	C=C[C@@H](C[C@H](O)[C@H](CC1CCCCC1)NC(=O)[C@H](Cc1c[nH]cn1)NC(=O)[C@H](Cc1ccccc1)NC(=O)OC(C)(C)C)C(C)C [D, t-butyl [(S)-α-[[(S)-1-[[(1S,2S,4S)-1-cyclohexylmethyl-2-hydroxy-4-isopropyl-5-hexenyl]carbamoyl]-2-imidazol-4-ylethyl]carbamoyl]phenethyl]carbamate]
8.10	CC[C@@H](C[C@H](O)[C@H](CC1CCCCC1)NC(=O)[C@H](Cc1c[nH]cn1)NC(=O)[C@H](Cc1ccccc1)NC(=O)OC(C)(C)C)C(C)C [E, t-butyl [(S)-α-[[(S)-1-[[(1S,2S,4S)-1-cyclohexylmethyl-2-hydroxy-4-isopropylhexyl]carbamoyl]-2-imidazol-4-ylethyl]carbamoyl]phenethyl]carbamate]
8.40	CC[C@@H](C[C@H](O)[C@H](CC1CCCCC1)NC(=O)[C@H](Cc1c[nH]cn1)NC(=O)[C@@H](CC(=O)[C@@H]1CCCN1C(=O)OC(C)(C)C)Cc1ccccc1)C(C)C [F, t-butyl (S)-2-[[(R)-α-[[(S)-1-[[(1S,2S,4S)-1-(cyclohexylmethyl)-2-hydroxy-4-isopropylhexyl]carbamoyl]-2-imidazol-4-ylethyl]carbamoyl]phenethyl]acetyl]-1-pyrrolidinecarboxylate]
7.77	C=C[C@@H](C[C@H](O)[C@H](CC1CCCCC1)NC(=O)[C@H](Cc1c[nH]cn1)NC(=O)[C@@H](CC(=O)NC(C)(CO)CO)Cc1ccccc1)C(C)C [K, (S)-N-[(1S,2S,4S)-1-(cyclohexylmethyl)-2-hydroxy-4-isopropyl-5-hexenyl]-α-[(R)-α-[[[2-hydroxy-1-(hydroxymethyl)-1-methylethyl]carbamoyl]methyl]hydrocinnamamido]imidazole-4-propionamide]
6.85	C=C[C@@H](C[C@H](O)[C@H](CC1CCCCC1)NC(=O)[C@H](Cc1c[nH]cn1)NC(=O)[C@@H](CC(N)=O)Cc1ccccc1)C(C)C [N, (S)-α-[(R)-α-(carbamoylmethyl)hydrocinnamamido]-N-[(1S,2S,4S)-1-(cyclohexylmethyl)-2-hydroxy-4-isopropyl-5-hexenyl]imidazole-4-propionamide]
7.92	C=C[C@@H](C[C@H](O)[C@H](CC1CCCCC1)NC(=O)[C@H](Cc1c[nH]cn1)NC(=O)[C@@H](CC(=O)N(C)C)Cc1ccccc1)C(C)C [O, (S)-N-[(1S,2S,4S)-1-(cyclohexylmethyl)-2-hydroxy-4-isopropyl-5-hexenyl]-α-[(R)-α-[(dimethylcarbamoyl)-methyl]hydrocinnamamido]imidazole-4-propionamide]
8.77	C=C[C@@H](CC(O)[C@H](CC1CCCCC1)NC(=O)[C@H](Cc1c[nH]cn1)NC(=O)[C@H](Cc1ccccc1)NC(=O)[C@@H]1CCCN1C(=O)[C@H]1CCCN1C(=O)OC(C)(C)C)C(C)C (stereo partly drawn) [R, (2S,5S)-2-(Boc--D--Pro--Pro--Phe--His--NH)-1-cyclohexyl-5-isopropyl-6-hepten-3-ol] (Boc-[dP]PFH-X1)

Compound	pIC50
CC[C@@H](C[C@H](O)[C@H](CC1CCCCC1)NC(=O)[C@H](Cc1c[nH]cn1)NC(=O)C(CC(=O)C1CCCC1)Cc1ccccc1)C(C)C (mixture of isomers) [Q]	7.17
C=C[C@@H](C[C@H](O)[C@H](CC1CCCCC1)NC(=O)[C@H](Cc1c[nH]cn1)NC(=O)[C@H](Cc1ccccc1)NC(=O)[C@H]1CCCN1C(=O)OC(C)(C)C)C(C)C [B, (2S,3S,5S)-2-(Boc--D--Pro--Phe--His--NH)-1-cyclohexyl-5-isopropyl-6-hepten-3-ol]	9.52
C=C[C@@H](C[C@H](O)[C@H](CC1CCCCC1)NC(=O)[C@H](Cc1c[nH]cn1)NC(=O)CC(C)C)C(C)C [C]	8.05
CC[C@@H](C[C@H](O)[C@H](CC1CCCCC1)NC(=O)[C@H](Cc1c[nH]cn1)NC(=O)[C@@H](CC(=O)NC(C)(CO)CO)Cc1ccccc1)C(C)C [G, (S)-N-[(1S,2S,4S)-1-(cyclohexylmethyl)-2-hydroxy-4-isopropylhexyl]-α-[[[[(R)-α-2-hydroxy-1-(hydroxymethyl)-1-methylethyl]carbamoyl]methyl]hydrocinnamamido]imidazole-4-propionamide]	7.82
CC[C@@H](C[C@H](O)[C@H](CC1CCCCC1)NC(=O)[C@H](Cc1c[nH]cn1)NC(=O)C(CC(=O)N1CCOCC1)Cc1cccc2ccccc12)C(C)C (some centres unmarked) [H]	8.39
C=C[C@@H](C[C@H](O)[C@H](CC1CCCCC1)NC(=O)[C@H](Cc1c[nH]cn1)NC(=O)[C@@H](CC(=O)C(C)(C)C)Cc1ccccc1)C(C)C [L]	8.15
C=C[C@@H](C[C@H](O)[C@H](CC1CCCCC1)NC(=O)[C@H](Cc1c[nH]cn1)NC(=O)[C@H](Cc1ccccc1)NC(=O)N1CCOCC1)C(C)C [M]	7.68
